Results published in PubChem BioAssay (NCI).
Values joined by “and” are separate entries in the source; they are usually repeats but may differ in a detail not shown here. Equal values may be shown once.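 Tested at 5 concentrations; 48 h exposure; 96-well plates; endpoints linearly interpolated, else capped at highest concentration. GI50: concentration for 50% inhibition of growth. TGI denotes the concentration required for complete inhibition of growth.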

Assays:
Test in all cases: NCI anticancer screen, dose series, 48 h
HCT-15 colon = system: HCT-15 colon
SNB-19 CNS = system: SNB-19 CNS
LOX IMVI melanoma = system: LOX IMVI melanoma
OVCAR-3 ovarian = system: OVCAR-3 ovarian
DU-145 prostate = system: DU-145 prostate
MDA-MB-435 = system: MDA-MB-435
COLO 205 colon = system: COLO 205 colon
CCRF-CEM leukemia = system: CCRF-CEM leukemia
NCI-H460 lung = system: NCI-H460 lung
UACC-62 melanoma = system: UACC-62 melanoma
SNB-75 CNS = system: SNB-75 CNS
HCT-116 colon = system: HCT-116 colon
SW-620 colon = system: SW-620 colon
MDA-MB-231 breast = system: MDA-MB-231 breast
HOP-62 NSCLC = system: HOP-62 NSCLC
OVCAR-4 ovarian = system: OVCAR-4 ovarian
IGROV1 ovarian = system: IGROV1 ovarian
UO-31 renal = system: UO-31 renal
SF-268 CNS = system: SF-268 CNS
SK-MEL-28 melanoma = system: SK-MEL-28 melanoma
SK-MEL-5 melanoma = system: SK-MEL-5 melanoma
OVCAR-5 ovarian = system: OVCAR-5 ovarian
SN12C renal = system: SN12C renal
KM12 colon = system: KM12 colon
PC-3 prostate = system: PC-3 prostate
CAKI-1 renal = system: CAKI-1 renal
NCI-H522 lung = system: NCI-H522 lung
HT29 colon = system: HT29 colon
RPMI-8226 leukemia = system: RPMI-8226 leukemia
ACHN renal = system: ACHN renal
M14 melanoma = system: M14 melanoma
SF-295 CNS = system: SF-295 CNS
TK-10 renal = system: TK-10 renal
U251 CNS = system: U251 CNS
T-47D breast = system: T-47D breast
K-562 leukemia = system: K-562 leukemia
786-0 renal = system: 786-0 renal
MOLT-4 leukemia = system: MOLT-4 leukemia
NCI-H226 lung = system: NCI-H226 lung
NCI-H23 lung = system: NCI-H23 lung
UACC-257 melanoma = system: UACC-257 melanoma
SR leukemia = system: SR leukemia
OVCAR-8 ovarian = system: OVCAR-8 ovarian
MALME-3M melanoma = system: MALME-3M melanoma
HL-60(TB) leukemia = system: HL-60(TB) leukemia
SF-539 CNS = system: SF-539 CNS
SK-MEL-2 melanoma = system: SK-MEL-2 melanoma
NCI/ADR-RES ovarian = system: NCI/ADR-RES ovarian
SK-OV-3 ovarian = system: SK-OV-3 ovarian
MCF7 breast = system: MCF7 breast

`COc1c(OCCCN2CCOCC2)ccc2c3n(c(=NC(=O)c4cnc(N)nc4)nc12)CCN3` was tested, and the GI50 (HCT-15 colon) was 59.9 nM [middle of 4 runs], the TGI (HCT-15 colon) was over 100000 nM and the GI50 (SNB-19 CNS) was 297 nM [middle of 4 runs]. The TGI (SNB-19 CNS) was over 100000 nM, the GI50 (LOX IMVI melanoma) was 64.9 nM [middle of 4 runs] and the GI50 (OVCAR-3 ovarian) was 36.2 nM and 28.3 nM and 126 nM. The TGI (OVCAR-3 ovarian) was 890 nM and 976 nM and 4920 nM, the TGI (DU-145 prostate) was over 100000 nM and the GI50 (MDA-MB-435) was 142 nM [middle of 4 runs]. The GI50 (COLO 205 colon) was 38.1 nM [middle of 4 runs], the GI50 (CCRF-CEM leukemia) was 48.9 nM [middle of 4 runs] and the TGI (CCRF-CEM leukemia) was over 100000 nM. The GI50 (NCI-H460 lung) was 39.7 nM [middle of 4 runs], the TGI (NCI-H460 lung) was over 100000 nM and the GI50 (UACC-62 melanoma) was 48.3 nM [middle of 4 runs]. For the same compound, the TGI (UACC-62 melanoma) was 464 nM [middle of 4 runs], the GI50 (SNB-75 CNS) was 7.5 nM and < 12.3 nM and < 10 nM and the TGI (SNB-75 CNS) was 50.4 nM and 33 nM. For the same compound, the GI50 (HCT-116 colon) was 109 nM [middle of 4 runs], the TGI (HCT-116 colon) was over 100000 nM and the GI50 (SW-620 colon) was 216 nM [middle of 4 runs]. The TGI (SW-620 colon) was over 100000 nM, the GI50 (MDA-MB-231 breast) was 339 nM [middle of 4 runs] and the GI50 (HOP-62 NSCLC) was 132 nM [middle of 4 runs]. The TGI (HOP-62 NSCLC) was over 100000 nM, the GI50 (OVCAR-4 ovarian) was 469 nM and 391 nM and 438 nM and the TGI (OVCAR-4 ovarian) was > 75000 nM and 10800 nM and 7650 nM. The TGI (IGROV1 ovarian) was 40.3 nM [middle of 4 runs], the GI50 (UO-31 renal) was 22.4 nM and 23.8 nM and 24.5 nM and the TGI (SF-268 CNS) was over 100000 nM. For the same compound, the TGI (SK-MEL-28 melanoma) was 7660 nM and 810 nM and 1640 nM, the GI50 (SK-MEL-5 melanoma) was 228 nM [middle of 4 runs] and the TGI (SK-MEL-5 melanoma) was 1.51 µM [middle of 4 runs]. For the same compound, the GI50 (OVCAR-5 ovarian) was 31.2 nM [middle of 4 runs], the TGI (OVCAR-5 ovarian) was over 100000 nM and the GI50 (SN12C renal) was 88.5 nM [middle of 4 runs]. The TGI (SN12C renal) was over 100000 nM, the GI50 (KM12 colon) was 368 nM [middle of 4 runs] and the TGI (PC-3 prostate) was over 100000 nM. The TGI (CAKI-1 renal) was 3380 nM and > 10000 nM and 2400 nM, the GI50 (NCI-H522 lung) was 138 nM [middle of 4 runs] and the GI50 (HT29 colon) was 17.7 nM and 24.9 nM and 10.9 nM. The TGI (HT29 colon) was over 100000 nM, the GI50 (RPMI-8226 leukemia) was 220 nM and 174 nM and 323 nM and the TGI (RPMI-8226 leukemia) was 2050 nM and > 10000 nM. The GI50 (ACHN renal) was 72.3 nM [middle of 4 runs], the TGI (ACHN renal) was over 100000 nM and the GI50 (M14 melanoma) was 118 nM [middle of 4 runs]. The GI50 (SF-295 CNS) was 74.8 nM [middle of 4 runs], the TGI (SF-295 CNS) was 814 nM [middle of 4 runs] and the TGI (TK-10 renal) was 198 nM and 782 nM. The TGI (U251 CNS) was over 100000 nM, the GI50 (T-47D breast) was 7.5 nM and 2.58 nM and < 10 nM and the TGI (T-47D breast) was 39.4 nM and 40.8 nM and 30.2 nM. For the same compound, the GI50 (K-562 leukemia) was 1.68 µM [middle of 4 runs], the TGI (K-562 leukemia) was over 100000 nM and the GI50 (786-0 renal) was 91.3 nM [middle of 4 runs]. The GI50 (MOLT-4 leukemia) was 36.3 nM and 40.9 nM and 28.3 nM, the GI50 (NCI-H226 lung) was 144 nM [middle of 4 runs] and the TGI (NCI-H226 lung) was over 100000 nM. The GI50 (NCI-H23 lung) was 398 nM [middle of 4 runs], the TGI (NCI-H23 lung) was over 100000 nM and the GI50 (UACC-257 melanoma) was 77.4 nM [middle of 4 runs]. The GI50 (SR leukemia) was 315 nM [middle of 4 runs], the GI50 (OVCAR-8 ovarian) was 228 nM [middle of 4 runs] and the TGI (OVCAR-8 ovarian) was over 100000 nM. For the same compound, the TGI (MALME-3M melanoma) was 448 nM [middle of 4 runs], the TGI (HL-60(TB) leukemia) was over 75000 nM and the TGI (SF-539 CNS) was 664 nM [middle of 4 runs]. The GI50 (SK-MEL-2 melanoma) was 197 nM [middle of 4 runs], the GI50 (NCI/ADR-RES ovarian) was 428 nM [middle of 4 runs] and the TGI (NCI/ADR-RES ovarian) was over 100000 nM. For the same compound, the TGI (SK-OV-3 ovarian) was 67.3 nM and 446 nM and 74.5 nM and the TGI (MCF7 breast) was over 100000 nM.
